Series [1] deals with Host vs Graft Reaction in Mice. Nature of the series: Inhibitory effects of test compounds on host vs graft reaction in mice (popliteal lymph node weight). In kind it is in vivo, C3H/HeN mice. How it is done: Inhibitory Effects of Test Compounds on Host vs Graft Reaction in Mice
This experiment was performed according to the method described in Transplantation 55(3) (1993): 578-591. Spleens were collected from 7 to 12 week old male BALB/c mice (available from CLEA JAPAN Inc., CHARLES RIVER JAPAN Inc., or JAPAN SLC Inc.). The spleens were placed in an RPMI-1640 medium (SIGMA, GIBCO […] Inc., or IWAKI GLASS Co., Ltd.) and were gently pressed between two slide glasses and then passed through a cell strainer (70 μm, Falcon) to form a cell suspension. The suspension was then centrifuged and the supernatant was discarded. An ammonium chloride-Tris isotonic buffer was added to the suspension to lyse erythrocytes. The cells were then centrifuged three times in RPMI-1640 medium for washing and were resuspended in an RPMI-1640 medium. To this suspension, mitomycin C (KYOWA HAKKO KOGYO Co., Ltd.) was added to a final concentration of 25 μg/mL and the suspension was incubated for 30 minutes at 37° C. in a 5% CO2 atmosphere. The cells were centrifuged three times in RPMI-1640 medium for washing and were resuspended in an RPMI-1640 medium so that the medium would contain 2.5×10^8 cells/mL. This suspension served as a “stimulation cell suspension.” Using a 27 G needle, along with a microsyringe (Hamilton), 20 μL (5×10^6 cells/mouse) of the stimulation cell suspension was subcutaneously injected into the right hind footpad of 6 to 12 week old male C3H/HeN mice (CLEA JAPAN Inc., CHARLES RIVER JAPAN Inc., or JAPAN SLC Inc.). As a normal control group, a group of mice were injected with RPMI-1640 medium alone. 4 days after the injection, right popliteal lymph nodes were collected and were weighed on a Mettler AT201 electronic scale (METTLER TOLEDO Co., Ltd.). Each animal was intraperitoneally administered a test compound once a day for four consecutive days starting on the day of the injection of the stimulation cells (i.e., total of 4 times). As a control group, a group of the animals were administered the same solvent as that used in the preparation of each test compound.

[2] abbreviates: Mus musculus, ip, dose 0.03 mg/kg.
Setting [3] is: Mus musculus, ip, dose 0.1 mg/kg.

Molecules are shown by their SMILES. Structures can show the parent of a compound that is named as a salt.

As usually defined, the inhibition in vivo is the drop in the measured response relative to a control, in per cent. Read a high inhibition in vivo as a response far below the control. By melting point is commonly meant the temperature, or range, at which the solid turns liquid.

Molecule `CCC(N)(CO)CCc1ccc(Sc2cccc(OCc3ccccc3)c2)cc1Cl` (single isomer, unassigned; (-)) [Example 196, (−)-2-amino-4-[4-(3-benzyloxyphenylthio)-2-chlorophenyl]-2-ethylbutane-1-ol] registered an inhibition in vivo at 0.03 mg/kg in series [1] (setting [2]) of 63%.

Take `CC(O)C(CCCc1ccc(Oc2cccc(OCc3ccccc3)c2)cc1Cl)NC(=O)OC(C)(C)C` (stereo not shown) [Example 131, 6-[4-(3-benzyloxyphenoxy)-2-chlorophenyl]-3-t-butoxycarbonylaminohexane-2-ol]: the inhibition in vivo at 0.3 mg/kg in series [1] (Mus musculus, ip) amounted to 57%. In turn, `CCCC(N)(CO)CCCc1ccc(Sc2cccc(OCc3ccccc3)c2)cc1Cl` (stereo not shown) [Example 197] displayed an inhibition in vivo at 0.03 mg/kg in series [1] (setting [2]) of 54%. In series [1] (Mus musculus, ip), `CC(C)CC(N)(CO)CCCc1ccc(Sc2cccc(OCc3ccccc3)c2)cc1Cl` (stereo not shown) [Example 223, 2-amino-5-[4-(3-benzyloxyphenylthio)-2-chlorophenyl]-2-isobutylpentane-1-ol hydrochloride] gave an inhibition in vivo at 0.3 mg/kg of 70%. `CC(O)C(N)CCCc1ccc(Sc2cccc(OCc3ccccc3)c2)cc1Cl` (stereo not shown) [Example 135, 3-amino-6-[4-(3-benzyloxyphenylthio)-2-chlorophenyl]hexane-2-ol hydrochloride]: the inhibition in vivo at 1 mg/kg in series [1] (Mus musculus, ip, dose 1 mg/kg) came out at 69%. `CC(N)(CO)CCCc1ccc(Sc2cccc(OCc3ccccc3)c2)cc1Cl` (single isomer, unassigned; (+)) [Example 184, (+)-2-amino-5-[4-(3-benzyloxyphenylthio)-2-chlorophenyl]-2-methylpentane-1-ol]: the “Inhibition (%)” value in series [1] (dose 0.1 mg/kg) is given as 45%. `NC(CO)(CCO)CCCc1ccc(Sc2cccc(OCc3ccccc3)c2)cc1Cl` (stereo not shown) [Example 148, 3-amino-6-[4-(3-benzyloxyphenylthio)-2-chlorophenyl]-3-hydroxymethylhexanol hydrochloride] yielded an inhibition in vivo at 0.3 mg/kg in series [1] (Mus musculus, ip) of 71%. Consider `CC(N)(CO)CCc1ccc(Sc2cccc(OCc3ccccc3)c2)cc1Cl.Cl` (single isomer, unassigned; (+)) [Example 191, (+)-2-amino-4-[4-(3-benzyloxyphenylthio)-2-chlorophenyl]-2-methylbutane-1-ol hydrochloride], for which the “Inhibition (%)” value in series [1] (dose 0.1 mg/kg, hydrochloride) was determined as 41%. In series [1] (setting [3]), `CCC(N)(CO)CCCc1ccc(Sc2cccc(OCc3ccccc3)c2)cc1Cl` (racemic) [Example 188, (±)-2-amino-5-[4-(3-benzyloxyphenylthio)-2-chlorophenyl]-2-ethylpentane-1-ol hydrochloride] came in with an inhibition in vivo at 0.1 mg/kg of 78%. For `CC(N)(CO)CCc1ccc(Sc2cccc(OCc3ccccc3)c2)cc1Cl.Cl` (single isomer, unassigned; (+)) [Example 192, (+)-2-amino-4-[4-(3-benzyloxyphenylthio)-2-chlorophenyl]-2-methylbutane-1-ol hydrochloride], the “Inhibition (%)” value in series [1] (dose 0.1 mg/kg, hydrochloride) came out at 86%. In the case of `CCC(N)=C(CO)CCCc1ccc(Sc2cccc(OCc3ccccc3)c2)cc1Cl` [Example 227, 3-amino-7-[4-(3-benzyloxyphenylthio)-2-chlorophenyl]-4-hydroxymethyl-3-heptene hydrochloride], testing at 0.3 mg/kg in series [1] (Mus musculus, ip) gave an inhibition in vivo of 58%. For the molecule `CC(N)(CO)CCCc1ccc(Sc2cccc(OCc3ccccc3)c2)cc1Cl` (single isomer, unassigned; (+)) [Example 185, (+)-2-amino-5-[4-(3-benzyloxyphenylthio)-2-chlorophenyl]-2-methylpentane-1-ol], the “Inhibition (%)” value in series [1] (dose 0.1 mg/kg) was 88%. The molecule `Cl.NC(CO)CCCc1ccc(S(=O)(=O)c2cccc(OCc3ccccc3)c2)cc1Cl` (stereo not shown) displayed a melting point of 154 to 156 °C. On the same count and under the same terms, for `CC(=O)NC(CO)CCc1ccc(Sc2cccc(OCc3ccccc3)c2)cc1Cl` (stereo not shown) [Example 201, 2-acetylamino-4-[4-(3-benzyloxyphenylthio)-2-chlorophenyl]butane-1-ol] the value was 78 to 81 °C. Molecule `OCC(CCCc1ccc(Oc2cccc(C(F)(F)F)c2)cc1)Nc1ccccc1` (stereo not shown) [Example 127, 2-phenylamino-5-[4-(3-trifluoromethylphenoxy)phenyl]pentane-1-ol] had an inhibition in vivo at 10 mg/kg in series [1] (Mus musculus, ip, dose 10 mg/kg) of 57%. As to `Cl.NC(CO)CCCc1ccc(Sc2cccc(C(F)(F)F)c2)cc1Cl` (stereo not shown), the melting point lay in the range of 166 to 168 °C. In series [1] (Mus musculus, ip), `C#CCC(N)(CO)CCCc1ccc(Sc2cccc(OCc3ccccc3)c2)cc1Cl` (stereo not shown) [Example 222, 2-amino-5-[4-(3-benzyloxyphenylthio)-2-chlorophenyl]-2-propargylpentane-1-ol hydrochloride] yielded an inhibition in vivo at 0.3 mg/kg of 57%. In the case of `CCC(N)(CO)CCCc1ccc(Sc2cccc(OCc3ccccc3)c2)cc1Cl` (single isomer, unassigned; (+)) [Example 189, (+)-2-amino-5-[4-(3-benzyloxyphenylthio)-2-chlorophenyl]-2-ethylpentane-1-ol], in series [1] (setting [2]), the inhibition in vivo at 0.03 mg/kg was 71%. `CCCC(N)(CO)CCCc1ccc(Sc2cccc(OCc3ccccc3)c2)cc1Cl.Cl` (single isomer, unassigned; (+)) [Example 209, (+)-2-amino-5-[4-(3-benzyloxyphenylthio)-2-chlorophenyl]-2-propylpentane-1-ol] yielded a melting point of 55 to 57 °C. The “Inhibition (%)” value in series [1] (dose 0.03 mg/kg) was determined as 71%. `NC(CO)(CCCO)CCCc1ccc(Sc2cccc(OCc3ccccc3)c2)cc1Cl` (stereo not shown) [Example 151, 4-amino-7-[4-(3-benzyloxyphenylthio)-2-chlorophenyl]-4-hydroxymethylheptanol hydrochloride] came in with an inhibition in vivo at 0.03 mg/kg in series [1] (setting [2]) of 65%. Regarding `CCC(N)(CO)CCc1ccc(Sc2cccc(OCc3ccccc3)c2)cc1Cl` (racemic) [Example 194, (±)-2-amino-4-[4-(3-benzyloxyphenylthio)-2-chlorophenyl]-2-ethylbutane-1-ol], at 0.1 mg/kg the inhibition in vivo in series [1] (setting [3]) was 70%.

The record behind these values is patent US7763752B2, “Amino alcohol derivatives, salts thereof and immunosuppresive agents” (Kyorin Pharmaceutical Co., Ltd., priority 2002, dated 2010).
